PubChem BioAssay AID1963828 (Molecular Pharmacology Branch, DTP, NCI, 2024)

Tested on: 991263-137-R1-J2-PDC complex spheroid viability
Assay: Anticancer human tumor 991263-137-R1-J2-PDC patient-derived colon adenocarcinoma cell line growth inhibition [POLQ]
Conditions: for IC50: curve of first compound; for viability, T/C: stronger effect = lower value
In short: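 Patient-derived tumour cells were co-cultured with HUVEC and mesenchymal stem cells as multicellular spheroids at 37 °C. They were treated with POLQ inhibitors (novobiocin, ART-558, RP6685) alone or combined with other agents. Top concentrations were at or near clinical Cmax (otherwise 10 microM; SN-38 at 1 microM), decreasing in half-log steps.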

[1] = second compound 0.0316 µM, first compound 0.00316 µM
[2] = second compound 0.0316 µM, first compound 0.01 µM
[3] = second compound 0.0316 µM, first compound 0.0316 µM
[4] = second compound 0.0316 µM, first compound 0.1 µM
[5] = second compound 0.0316 µM, first compound 0.316 µM
[6] = second compound 0.0316 µM, first compound 1 µM
[7] = second compound 0.1 µM, first compound 0.00316 µM
[8] = second compound 0.1 µM, first compound 0.01 µM
[9] = second compound 0.1 µM, first compound 0.0316 µM
[10] = second compound 0.1 µM, first compound 0.1 µM
[11] = second compound 0.1 µM, first compound 0.316 µM
[12] = second compound 0.1 µM, first compound 1 µM
[13] = second compound 0.316 µM, first compound 0.00316 µM
[14] = second compound 0.316 µM, first compound 0.01 µM
[15] = second compound 0.316 µM, first compound 0.0316 µM
[16] = second compound 0.316 µM, first compound 0.1 µM
[17] = second compound 0.316 µM, first compound 0.316 µM
[18] = second compound 0.316 µM, first compound 1 µM
[19] = second compound 1 µM, first compound 0.00316 µM
[20] = second compound 1 µM, first compound 0.01 µM
[21] = second compound 1 µM, first compound 0.0316 µM
[22] = second compound 1 µM, first compound 0.1 µM
[23] = second compound 1 µM, first compound 0.316 µM
[24] = second compound 1 µM, first compound 1 µM
[25] = second compound 3.16 µM, first compound 0.00316 µM
[26] = second compound 3.16 µM, first compound 0.01 µM
[27] = second compound 3.16 µM, first compound 0.0316 µM
[28] = second compound 3.16 µM, first compound 0.1 µM
[29] = second compound 3.16 µM, first compound 0.316 µM
[30] = second compound 3.16 µM, first compound 1 µM
[31] = second compound 10 µM, first compound 0.00316 µM
[32] = second compound 10 µM, first compound 0.01 µM
[33] = second compound 10 µM, first compound 0.0316 µM
[34] = second compound 10 µM, first compound 0.1 µM
[35] = second compound 10 µM, first compound 0.316 µM
[36] = second compound 10 µM, first compound 1 µM
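Further: spheroids exposed to compounds for 7 days before readout.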
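Wherever viability, T/C is given: 100% = DMSO vehicle control viability.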

`C=CCn1c(=O)c2cnc(Nc3ccc(N4CCN(C)CC4)cc3)nc2n1-c1cccc(C(C)(C)O)n1` + Nc1ccc(C#CCN(C(=O)Cc2ncc(C(F)(F)F)cc2C(F)(F)F)c2ccc(F)cc2)nn1 gave an IC50 (second compound 0.0316 µM) greater than 1000 nM, an IC50 (second compound 0.1 µM) greater than 1000 nM and an IC50 (second compound 0.316 µM) greater than 1000 nM. It also gave an IC50 (second compound 1 µM) greater than 1000 nM, an IC50 (second compound 3.16 µM) greater than 1000 nM and an IC50 (second compound 10 µM) greater than 1000 nM. For the same molecule, the viability, T/C [1] was 96.2%, the viability, T/C [2] was 100% and the viability, T/C [3] was 90.4%. For the same molecule, the viability, T/C [4] was 102%, the viability, T/C [5] was 104% and the viability, T/C [6] was 97.8%. It also gave a viability, T/C [7] of 117%, a viability, T/C [8] of 105% and a viability, T/C [9] of 93.6%. It also gave a viability, T/C [10] of 101%, a viability, T/C [11] of 103% and a viability, T/C [12] of 93.8%. It also gave a viability, T/C [13] of 97.3%, a viability, T/C [14] of 98.2% and a viability, T/C [15] of 108%. For the same molecule, the viability, T/C [16] was 96.3%, the viability, T/C [17] was 109% and the viability, T/C [18] was 93.5%. The viability, T/C [19] was 103%, the viability, T/C [20] was 115% and the viability, T/C [21] was 103%. The viability, T/C [22] was 105%, the viability, T/C [23] was 105% and the viability, T/C [24] was 92%. The viability, T/C [25] was 91.8%, the viability, T/C [26] was 102% and the viability, T/C [27] was 101%. It also gave a viability, T/C [28] of 92.1%, a viability, T/C [29] of 98.1% and a viability, T/C [30] of 102%. It also gave a viability, T/C [31] of 86.3%, a viability, T/C [32] of 102% and a viability, T/C [33] of 103%. The viability, T/C [34] was 99.4%, the viability, T/C [35] was 102% and the viability, T/C [36] was 78.2%.

Work on `CC[C@@]1(O)C(=O)OCc2c1cc1n(c2=O)Cc2cc3c(CN(C)C)c(O)ccc3nc2-1` + Nc1ccc(C#CCN(C(=O)Cc2ncc(C(F)(F)F)cc2C(F)(F)F)c2ccc(F)cc2)nn1 yielded an IC50 (second compound 0.0316 µM) greater than 100 nM, an IC50 (second compound 0.1 µM) greater than 100 nM and an IC50 (second compound 0.316 µM) greater than 100 nM. The IC50 (second compound 1 µM) was greater than 100 nM, the IC50 (second compound 3.16 µM) was greater than 100 nM and the IC50 (second compound 10 µM) was greater than 100 nM. It also gave a viability, T/C (second compound 0.0316 µM, first compound 0.000316 µM) of 94.8%, a viability, T/C (second compound 0.0316 µM, first compound 0.001 µM) of 92.6% and a viability, T/C [1] of 92.4%. It also gave a viability, T/C [2] of 101%, a viability, T/C [3] of 99.8% and a viability, T/C [4] of 80.2%. The viability, T/C (second compound 0.1 µM, first compound 0.000316 µM) was 111%, the viability, T/C (second compound 0.1 µM, first compound 0.001 µM) was 102% and the viability, T/C [7] was 101%. The viability, T/C [8] was 94.6%, the viability, T/C [9] was 101% and the viability, T/C [10] was 79.8%. The viability, T/C (second compound 0.316 µM, first compound 0.000316 µM) was 108%, the viability, T/C (second compound 0.316 µM, first compound 0.001 µM) was 109% and the viability, T/C [13] was 95.4%. It also gave a viability, T/C [14] of 107%, a viability, T/C [15] of 104% and a viability, T/C [16] of 76.8%. It also gave a viability, T/C (second compound 1 µM, first compound 0.000316 µM) of 104%, a viability, T/C (second compound 1 µM, first compound 0.001 µM) of 106% and a viability, T/C [19] of 101%. It also gave a viability, T/C [20] of 101%, a viability, T/C [21] of 101% and a viability, T/C [22] of 84.3%. It also gave a viability, T/C (second compound 3.16 µM, first compound 0.000316 µM) of 102%, a viability, T/C (second compound 3.16 µM, first compound 0.001 µM) of 94.9% and a viability, T/C [25] of 105%. For the same molecule, the viability, T/C [26] was 93.1%, the viability, T/C [27] was 93.6% and the viability, T/C [28] was 65.6%. It also gave a viability, T/C (second compound 10 µM, first compound 0.000316 µM) of 102%, a viability, T/C (second compound 10 µM, first compound 0.001 µM) of 112% and a viability, T/C [31] of 107%. For the same molecule, the viability, T/C [32] was 88.1%, the viability, T/C [33] was 91.1% and the viability, T/C [34] was 66.6%.

`CCc1c2c(nc3ccc(O)cc13)-c1cc3c(c(=O)n1C2)COC(=O)[C@]3(O)CC` + Nc1ccc(C#CCN(C(=O)Cc2ncc(C(F)(F)F)cc2C(F)(F)F)c2ccc(F)cc2)nn1 was tested, and the IC50 (second compound 0.0316 µM) was 81 nM, the IC50 (second compound 0.1 µM) was 62.1 nM and the IC50 (second compound 0.316 µM) was 101 nM. It also gave an IC50 (second compound 1 µM) of 110 nM, an IC50 (second compound 3.16 µM) of 90.9 nM and an IC50 (second compound 10 µM) of 94.1 nM. The viability, T/C [1] was 90.7%, the viability, T/C [2] was 76.1% and the viability, T/C [3] was 51.9%. The viability, T/C [4] was 51.2%, the viability, T/C [5] was 42% and the viability, T/C [6] was 26.2%. It also gave a viability, T/C [7] of 95.9%, a viability, T/C [8] of 78.6% and a viability, T/C [9] of 52.9%. For the same molecule, the viability, T/C [10] was 45.3%, the viability, T/C [11] was 42.8% and the viability, T/C [12] was 30.2%. The viability, T/C [13] was 102%, the viability, T/C [14] was 89.6% and the viability, T/C [15] was 58%. For the same molecule, the viability, T/C [16] was 52.9%, the viability, T/C [17] was 39.8% and the viability, T/C [18] was 25.6%. The viability, T/C [19] was 100%, the viability, T/C [20] was 81.5% and the viability, T/C [21] was 56.7%. It also gave a viability, T/C [22] of 55.4%, a viability, T/C [23] of 42.8% and a viability, T/C [24] of 28.2%. The viability, T/C [25] was 89.7%, the viability, T/C [26] was 72.7% and the viability, T/C [27] was 59.1%. The viability, T/C [28] was 48%, the viability, T/C [29] was 43.6% and the viability, T/C [30] was 24.3%. The viability, T/C [31] was 75%, the viability, T/C [32] was 65.1% and the viability, T/C [33] was 58.3%. For the same molecule, the viability, T/C [34] was 53.3%, the viability, T/C [35] was 35.7% and the viability, T/C [36] was 24.5%.

`O=C(c1cc(Cc2n[nH]c(=O)c3ccccc23)ccc1F)N1CCN(C(=O)C2CC2)CC1` + Nc1ccc(C#CCN(C(=O)Cc2ncc(C(F)(F)F)cc2C(F)(F)F)c2ccc(F)cc2)nn1 gave an IC50 (second compound 0.0316 µM) greater than 10000 nM, an IC50 (second compound 0.1 µM) greater than 10000 nM and an IC50 (second compound 0.316 µM) greater than 10000 nM. It also gave an IC50 (second compound 1 µM) greater than 10000 nM, an IC50 (second compound 3.16 µM) greater than 10000 nM and an IC50 (second compound 10 µM) greater than 10000 nM. The viability, T/C [3] was 105%, the viability, T/C [4] was 101% and the viability, T/C [5] was 90.1%. It also gave a viability, T/C [6] of 98.5%, a viability, T/C (second compound 0.0316 µM, first compound 3.16 µM) of 98.2% and a viability, T/C (second compound 0.0316 µM, first compound 10 µM) of 99.8%. The viability, T/C [9] was 101%, the viability, T/C [10] was 97.4% and the viability, T/C [11] was 90.3%. It also gave a viability, T/C [12] of 96.1%, a viability, T/C (second compound 0.1 µM, first compound 3.16 µM) of 110% and a viability, T/C (second compound 0.1 µM, first compound 10 µM) of 90%. The viability, T/C [15] was 106%, the viability, T/C [16] was 104% and the viability, T/C [17] was 93.8%. For the same molecule, the viability, T/C [18] was 97%, the viability, T/C (second compound 0.316 µM, first compound 3.16 µM) was 101% and the viability, T/C (second compound 0.316 µM, first compound 10 µM) was 97.2%. The viability, T/C [21] was 104%, the viability, T/C [22] was 96.1% and the viability, T/C [23] was 94.3%. The viability, T/C [24] was 90.3%, the viability, T/C (second compound 1 µM, first compound 3.16 µM) was 105% and the viability, T/C (second compound 1 µM, first compound 10 µM) was 90.4%. For the same molecule, the viability, T/C [27] was 103%, the viability, T/C [28] was 103% and the viability, T/C [29] was 95.4%. For the same molecule, the viability, T/C [30] was 100%, the viability, T/C (second compound 3.16 µM, first compound 3.16 µM) was 105% and the viability, T/C (second compound 3.16 µM, first compound 10 µM) was 105%. The viability, T/C [33] was 95.5%, the viability, T/C [34] was 93.6% and the viability, T/C [35] was 104%. For the same molecule, the viability, T/C [36] was 96.7%, the viability, T/C (second compound 10 µM, first compound 3.16 µM) was 97.1% and the viability, T/C (second compound 10 µM, first compound 10 µM) was 102%.
